PubChem BioAssay (NCI)
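Method: 48-hour compound exposure of cells in 96-well plates, five concentrations, linear interpolation of endpoints. Here, GI50 denotes the concentration required for 50% inhibition of growth. TGI is the concentration that stops growth completely.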

Experiments:
Experiment in all cases: inhibition of tumour cell growth, NCI panel, 48 h
786-0 renal = test system: 786-0 renal
A498 renal = test system: A498 renal
A549 NSCLC = test system: A549 NSCLC
ACHN renal = test system: ACHN renal
BT-549 breast = test system: BT-549 breast
CAKI-1 renal = test system: CAKI-1 renal
CCRF-CEM leukemia = test system: CCRF-CEM leukemia
COLO 205 colon = test system: COLO 205 colon
DU-145 prostate = test system: DU-145 prostate
EKVX NSCLC = test system: EKVX NSCLC
HCC-2998 colon = test system: HCC-2998 colon
HCT-116 colon = test system: HCT-116 colon
HCT-15 colon = test system: HCT-15 colon
HL-60(TB) leukemia = test system: HL-60(TB) leukemia
HOP-62 NSCLC = test system: HOP-62 NSCLC
HOP-92 NSCLC = test system: HOP-92 NSCLC
HS 578T breast = test system: HS 578T breast
HT29 colon = test system: HT29 colon
IGROV1 ovarian = test system: IGROV1 ovarian
K-562 leukemia = test system: K-562 leukemia
KM12 colon = test system: KM12 colon
LOX IMVI melanoma = test system: LOX IMVI melanoma
M14 melanoma = test system: M14 melanoma
MALME-3M melanoma = test system: MALME-3M melanoma
MCF7 breast = test system: MCF7 breast
MDA-MB-231 breast = test system: MDA-MB-231 breast
MDA-MB-435 = test system: MDA-MB-435
MDA-MB-468 breast = test system: MDA-MB-468 breast
MOLT-4 leukemia = test system: MOLT-4 leukemia
NCI-H226 lung = test system: NCI-H226 lung
NCI-H23 lung = test system: NCI-H23 lung
NCI-H460 lung = test system: NCI-H460 lung
NCI-H522 lung = test system: NCI-H522 lung
NCI/ADR-RES ovarian = test system: NCI/ADR-RES ovarian
OVCAR-3 ovarian = test system: OVCAR-3 ovarian
OVCAR-4 ovarian = test system: OVCAR-4 ovarian
OVCAR-5 ovarian = test system: OVCAR-5 ovarian
OVCAR-8 ovarian = test system: OVCAR-8 ovarian
PC-3 prostate = test system: PC-3 prostate
RPMI-8226 leukemia = test system: RPMI-8226 leukemia
RXF 393 renal = test system: RXF 393 renal
SF-268 CNS = test system: SF-268 CNS
SF-295 CNS = test system: SF-295 CNS
SF-539 CNS = test system: SF-539 CNS
SK-MEL-2 melanoma = test system: SK-MEL-2 melanoma
SK-MEL-28 melanoma = test system: SK-MEL-28 melanoma
SK-MEL-5 melanoma = test system: SK-MEL-5 melanoma
SK-OV-3 ovarian = test system: SK-OV-3 ovarian
SN12C renal = test system: SN12C renal
SNB-19 CNS = test system: SNB-19 CNS
SNB-75 CNS = test system: SNB-75 CNS
SR leukemia = test system: SR leukemia
SW-620 colon = test system: SW-620 colon
T-47D breast = test system: T-47D breast
TK-10 renal = test system: TK-10 renal
U251 CNS = test system: U251 CNS
UACC-257 melanoma = test system: UACC-257 melanoma
UACC-62 melanoma = test system: UACC-62 melanoma
UO-31 renal = test system: UO-31 renal

Cc1ccc(C(=O)C(c2c[nH]c3ccccc23)c2c[nH]c3ccccc23)cc1
GI50 (786-0 renal): 12.9 µM | TGI (786-0 renal): 29.1 µM | GI50 (A498 renal): 20.5 µM | TGI (A498 renal): 35.9 µM | GI50 (A549 NSCLC): 15 µM | TGI (A549 NSCLC): 33.1 µM | GI50 (ACHN renal): 10.9 µM | TGI (ACHN renal): 22.8 µM | GI50 (BT-549 breast): 12.8 µM | TGI (BT-549 breast): 26.5 µM | GI50 (CAKI-1 renal): 9.39 µM | TGI (CAKI-1 renal): 21.4 µM | GI50 (CCRF-CEM leukemia): 3.02 µM | TGI (CCRF-CEM leukemia): > 100 µM | GI50 (COLO 205 colon): 17.1 µM | TGI (COLO 205 colon): 33 µM | GI50 (DU-145 prostate): 14.4 µM | TGI (DU-145 prostate): 27.8 µM | GI50 (EKVX NSCLC): 13.7 µM | TGI (EKVX NSCLC): 27 µM | GI50 (HCC-2998 colon): 13.7 µM | TGI (HCC-2998 colon): 27 µM | GI50 (HCT-116 colon): 3.76 µM | TGI (HCT-116 colon): 15.2 µM | GI50 (HCT-15 colon): 4.73 µM | TGI (HCT-15 colon): 17.6 µM | GI50 (HL-60(TB) leukemia): 6.82 µM | TGI (HL-60(TB) leukemia): 38.2 µM | GI50 (HOP-62 NSCLC): 18 µM | TGI (HOP-62 NSCLC): 42.1 µM | GI50 (HOP-92 NSCLC): 16.3 µM | TGI (HOP-92 NSCLC): 33.3 µM | GI50 (HS 578T breast): 16.6 µM | TGI (HS 578T breast): 47.1 µM | GI50 (HT29 colon): 6.98 µM | TGI (HT29 colon): 22.1 µM | GI50 (IGROV1 ovarian): 11.7 µM | TGI (IGROV1 ovarian): 26.5 µM | GI50 (K-562 leukemia): 3.88 µM | TGI (K-562 leukemia): > 100 µM | GI50 (KM12 colon): 16.7 µM | TGI (KM12 colon): 31.1 µM | GI50 (LOX IMVI melanoma): 3.21 µM | TGI (LOX IMVI melanoma): 13.8 µM | GI50 (M14 melanoma): 12.6 µM | TGI (M14 melanoma): 29.1 µM | GI50 (MALME-3M melanoma): 16 µM | TGI (MALME-3M melanoma): 31.2 µM | GI50 (MCF7 breast): 3.77 µM | TGI (MCF7 breast): 15.7 µM | GI50 (MDA-MB-231 breast): 14.1 µM | TGI (MDA-MB-231 breast): 31 µM | GI50 (MDA-MB-435): 15.1 µM | TGI (MDA-MB-435): 29.7 µM | GI50 (MDA-MB-468 breast): 14.1 µM | TGI (MDA-MB-468 breast): 29 µM | GI50 (MOLT-4 leukemia): 3.95 µM | TGI (MOLT-4 leukemia): 80.4 µM | GI50 (NCI-H226 lung): 13.8 µM | TGI (NCI-H226 lung): 29.4 µM | GI50 (NCI-H23 lung): 11.5 µM | TGI (NCI-H23 lung): 25.9 µM | GI50 (NCI-H460 lung): 11.2 µM | TGI (NCI-H460 lung): 28.7 µM | GI50 (NCI-H522 lung): 10.7 µM | TGI (NCI-H522 lung): 24.1 µM | GI50 (NCI/ADR-RES ovarian): 13.1 µM | TGI (NCI/ADR-RES ovarian): 32.2 µM | GI50 (OVCAR-3 ovarian): 11.3 µM | TGI (OVCAR-3 ovarian): 23.6 µM | GI50 (OVCAR-4 ovarian): 13.2 µM | TGI (OVCAR-4 ovarian): 28.2 µM | GI50 (OVCAR-5 ovarian): 14.7 µM | TGI (OVCAR-5 ovarian): 29 µM | GI50 (OVCAR-8 ovarian): 16.7 µM | TGI (OVCAR-8 ovarian): 34.1 µM | GI50 (PC-3 prostate): 6.96 µM | TGI (PC-3 prostate): 28.3 µM | GI50 (RPMI-8226 leukemia): 8.31 µM | TGI (RPMI-8226 leukemia): > 100 µM | GI50 (RXF 393 renal): 12.5 µM | TGI (RXF 393 renal): 29.6 µM | GI50 (SF-268 CNS): 10.6 µM | TGI (SF-268 CNS): 25.4 µM | GI50 (SF-295 CNS): 14.8 µM | TGI (SF-295 CNS): 28.1 µM | GI50 (SF-539 CNS): 15.2 µM | TGI (SF-539 CNS): 29 µM | GI50 (SK-MEL-2 melanoma): 14.5 µM | TGI (SK-MEL-2 melanoma): 28.7 µM | GI50 (SK-MEL-28 melanoma): 14.5 µM | TGI (SK-MEL-28 melanoma): 28.1 µM | GI50 (SK-MEL-5 melanoma): 15.5 µM | TGI (SK-MEL-5 melanoma): 29.2 µM | GI50 (SK-OV-3 ovarian): 15.9 µM | TGI (SK-OV-3 ovarian): 33 µM | GI50 (SN12C renal): 11.1 µM | TGI (SN12C renal): 24.2 µM | GI50 (SNB-19 CNS): 16.9 µM | TGI (SNB-19 CNS): 31.4 µM | GI50 (SNB-75 CNS): 7.91 µM | TGI (SNB-75 CNS): 21 µM | GI50 (SR leukemia): 11 µM | TGI (SR leukemia): 77.6 µM | GI50 (SW-620 colon): 3.55 µM | TGI (SW-620 colon): 13.5 µM | GI50 (T-47D breast): 9.57 µM | TGI (T-47D breast): 28.4 µM | GI50 (TK-10 renal): 24.8 µM | TGI (TK-10 renal): 40.6 µM | GI50 (U251 CNS): 15.9 µM | TGI (U251 CNS): 30.9 µM | GI50 (UACC-257 melanoma): 13.2 µM | TGI (UACC-257 melanoma): 26.8 µM | GI50 (UACC-62 melanoma): 13.9 µM | TGI (UACC-62 melanoma): 27.9 µM | GI50 (UO-31 renal): 11.3 µM | TGI (UO-31 renal): 23.4 µM
